Reference: ChEMBL document CHEMBL1150886, “Cytotoxic compounds from the roots of Juglans mandshurica” (J Nat Prod, 1998)
Values after ≈ are worked out from the molar mass of the structure shown.

Legend:
HT-29 = experiment: Cytotoxicity against human HT-29 cells by MTT assay; type: functional, cell-based
A549 = experiment: Cytotoxicity against human A549 cells by MTT assay; type: functional, cell-based

SMILES | IC50 (HT-29) [µg/mL] | IC50 (A549) [µg/mL]
COc1cc(C(=O)OC[C@H]2O[C@@H](Oc3ccc(O)c4c3C(O)CCC4=O)[C@H](O)[C@@H](O)[C@@H]2O)cc(OC)c1O (some centres undefined) | > 50 | > 50
COC(=O)c1cc(O[C@H]2O[C@@H](CO)[C@H](O)[C@@H](O)[C@@H]2O)c2c(O)cccc2c1O | 8.06 (≈ 20.3 µM) | 7.79 (≈ 19.7 µM)
COC1=CC(=O)c2c(O)cccc2C1=O | 2.63 (≈ 12.9 µM) | 0.08 (≈ 0.392 µM)
COc1cc2ccc1Oc1cc(ccc1O)CC(O[C@@H]1O[C@H](CO)[C@@H](O)[C@H](O)[C@H]1O)C(=O)CCCC2 (some centres undefined) | > 50 | > 50
COC(=O)C(O)(c1cc2c(c3oc([C@]4(C)C[C@@H]4C)cc(=O)c13)C(=O)c1c(ccc([C@H]3C[C@](C)(N(C)C)[C@H](O[C@@H]4C[C@H](OC)[C@H](O)[C@@H](C)O4)[C@H](C)O3)c1O)C2=O)[C@H]1O[C@H](C)[C@@H](O)[C@@H](OC)[C@@H]1O (some centres undefined) [ALTROMYCIN B] | 3.98 (≈ 4.31 µM) | 
